Consider 3 compounds from patent US10703717B2, “Water-soluble isatin derivative, and manufacturing method and application thereof” (TIANJIN UNIVERSITY OF SCIENCE & TECHNOLOGY, priority 2016, dated 2020).

The test system of series [1] is HCT116 cells. In words: In-vitro anti-tumor activity, MTT assay, human colon cancer HCT116 cells. The series is classed as cell-based. The following applies: HCT-116, 48 h. The protocol: (§1) Anti-Tumor Activity Determination Method
Preparation of DMEM/F-12 medium: MEM/F-12 medium (Hyclone) was purchased, 500 mL per bottle, 10% fetal bovine serum and 1% streptomycin solution were added in it. That is, 50 mL of fetal bovine serum and 5 mL of streptomycin were added to each flask of the medium. The preparation of the medium was carried out in an ultra-clean workbench and stored in a refrigerator at 4° C.
(§2) Preparation of PBS buffer: Sodium chloride 8 g, potassium chloride 0.2 g, disodium hydrogen phosphate dodecahydrate 2.9 g, potassium dihydrogen phosphate 0.2 g and purified water 800 mL were placed into a 1000 mL conical flask, the mixture was stirred and dissolved to a volume of 1000 mL. After autoclaving, PBS buffer was stored in a refrigerator at 4° C.
(§3) Preparation of MTT solution: 0.5 g MTT dry powder was dissolved in 100 mL PBS buffer. After sterilizing by filtration through a […] filter, it was stored in a refrigerator at −12° C.
(§4) Three kinds of tumor cells were used in the antitumor activity assay of the present invention: human liver cancer cells (HepG2), human leukemia cells (K562) and human colon cancer cells (HCT116).
Activity test using human colon cancer HCT116 cells
The human colon cancer cells (HCT116) were grown in DMEM/F-12 medium supplemented with 10% fetal bovine serum, 1% penicillin/streptomycin and were cultured in an incubator of 5% CO2 at 37° C. The method comprises the following steps:
(1) After counting the cells with a hemocytometer, dilute it to a density of 5×10^4 cells/mL with DMEM/F-12 medium;
(§5) (2) 100 μl cell suspension was added in each well of 96-well plates and incubated at 37° C. for 24 h;
(3) The compound to be tested was diluted to five concentrations: 2 mM, 200 μM, 20 μM, 2 μM, 0.2 μM. Then, 0.5 μL compound of different concentrations was added to each well and incubated at 37° C. for another 48 h;
(4) MTT (5 mg/ml) was added to the well and the plate was further incubated for 4 h at 37° C.;
(§6) (5) Dissolving the cells with DMSO, and the OD values were measured at 490 nm and 630 nm by a microplate reader; […]
(Tetrazolium assays rely on reduction of a dye to a coloured formazan, in cell work by metabolically active cells.)

Series [2] relates to K562 cells. In words: In-vitro anti-tumor activity, MTT assay, human leukemia K562 cells. The series is classed as cell-based. The following applies: 48 h. How it is done: as §1, §2, §3, §4
Activity test using human leukemia K562 cells
The human leukemia cells (K562) were grown in RPMI1640 medium supplemented with 10% fetal bovine serum, 1% penicillin/streptomycin and were cultured in an incubator of 5% CO2 at 37° C.
The method comprises the following steps:
(1) After counting the cells with a hemocytometer, dilute it to a density of 5×10^4 cells/mL with RPMI1640 medium;
(2) 100 μl cell suspension was added in each well of 96-well plates and incubated at 37° C. for 2 h;
(§7) (3) The compound to be tested was diluted to five concentrations: 2 mM, 200 μM, 20 μM, 2 μM, 0.2 μM. Then, 0.5 μL compound of different concentrations was added to the well and incubated at 37° C. for another 48 h;
(§8) (4) MTT (5 mg/ml) was added to each well and the plate was further incubated for 4 h at 37° C.;
(5) Dissolving the cells with DMSO, and the OD values were measured at 570 nm and 630 nm by a microplate reader;
(6) Process the data by calculating the IC50 value based on the OD values.

Series [3] concerns HepG2 cells. The series is described as follows: In-vitro anti-tumor activity, MTT assay, human liver cancer HepG2 cells. The series is classed as cell-based. The conditions noted are these: 48 h. The protocol: as §1
Preparation of low glucose DMEM medium: MEM medium (Hyclone) was purchased with low glucose, 500 mL per bottle, 10% fetal bovine serum and 1% streptomycin solution were added in it. That is, 50 mL of fetal bovine serum and 5 mL of streptomycin were added to each flask of the medium. The preparation of the medium was carried out in an ultra-clean workbench and stored in a refrigerator at 4° C.
as §2, §3, §4
Activity Test Using Human Liver Cancer HepG2 Cells
The human liver cancer cells (HepG2) were grown in DMEM medium supplemented with 10% fetal bovine serum, 1% penicillin/streptomycin and were cultured in an incubator of 5% CO2 at 37° C. The method comprises the following steps:
(1) After counting the cells with a hemocytometer, dilute it to a density of 5×10^4 cells/mL with low glucose DMEM medium;
as §5, §7, §8, §6

A short description of series [4]: Water solubility. The class given is physicochemical. The following applies: for water solubility, in words: summary of table 1.
Series [5] has as its system tumor cells (HepG2, K562, HCT116). In words: In-vitro anti-tumor activity, summary in words over the three tumor cell lines. The class given is cell-based, human. The conditions noted are these: summary of table 1; for cytotoxic / anti-tumor activity, in words: compared with precursor/parent compound.
Description: as §1, §4

The IC50 is the concentration that gives 50% inhibition. Regarding `CC[C@@]1(O)C(=O)OCc2c1cc1n(c2=O)Cc2cc3ccccc3nc2-1` [CPT, camptothecin, reference compound], the IC50 in series [1], in series [2] and in series [3] was 100 to 1000 nM throughout. In addition, the Water solubility entry in series [4] is listed as “insoluble”.
As for `COC(=O)/C=C/c1ccc2c(c1)C(=O)C(=O)N2Cc1ccc(O)c(CN(C)C)c1` [Compound 2], the IC50 in series [1] was less than 10 nM; in series [2], less than 10 nM; in series [3], 1000 to 10000 nM. The “activity compared with positive reference substance camptothecin” value in series [5] is listed as “superior”. The “cytotoxic / anti-tumor activity, in words” value in series [5] is reported as “greatly improved”. In series [4], the Water solubility is reported as more than 10 g/100 g. The “water solubility, in words” value in series [4] was “obviously improved”.
As to `COc1ccc(CN2C(=O)C(=O)c3cc(-c4ccc(O)c(CN(C)C)c4)ccc32)cc1` [Compound 1], the half-inhibitory concentration (IC50) in series [1], in series [2] and in series [3] was 1000 to 10000 nM each time. In series [5], the “cytotoxic / anti-tumor activity, in words” value was “still retains certain cytotoxic activity”. Moreover, the Water solubility in series [4] is recorded as more than 10 g/100 g. In addition, the “water solubility, in words” value in series [4] is on record as “obviously improved”.
